These results are taken from PMC4869175, “Evidence that phytochrome functions as a protein kinase in plant light signalling” (Nature Communications, 2016).

Common to all, as to experiment: Photoaffinity labelling with 8-azido-ATP (ATP-binding affinity assay)
What all share (settings): 5 μM 8-azido-ATP; labelling of WT AsphyA with 5 μM assumed as 100%

Experiment [1] deals with T1, D422R AsphyA mutant (full-length) (Avena sativa, UniProt P06593, D422R).
T1 construct: After preparing purified full-length AsphyA mutants; made in house; host or cells: Pichia pastoris GS115
T1 sequence (P06593 whole entry D422R): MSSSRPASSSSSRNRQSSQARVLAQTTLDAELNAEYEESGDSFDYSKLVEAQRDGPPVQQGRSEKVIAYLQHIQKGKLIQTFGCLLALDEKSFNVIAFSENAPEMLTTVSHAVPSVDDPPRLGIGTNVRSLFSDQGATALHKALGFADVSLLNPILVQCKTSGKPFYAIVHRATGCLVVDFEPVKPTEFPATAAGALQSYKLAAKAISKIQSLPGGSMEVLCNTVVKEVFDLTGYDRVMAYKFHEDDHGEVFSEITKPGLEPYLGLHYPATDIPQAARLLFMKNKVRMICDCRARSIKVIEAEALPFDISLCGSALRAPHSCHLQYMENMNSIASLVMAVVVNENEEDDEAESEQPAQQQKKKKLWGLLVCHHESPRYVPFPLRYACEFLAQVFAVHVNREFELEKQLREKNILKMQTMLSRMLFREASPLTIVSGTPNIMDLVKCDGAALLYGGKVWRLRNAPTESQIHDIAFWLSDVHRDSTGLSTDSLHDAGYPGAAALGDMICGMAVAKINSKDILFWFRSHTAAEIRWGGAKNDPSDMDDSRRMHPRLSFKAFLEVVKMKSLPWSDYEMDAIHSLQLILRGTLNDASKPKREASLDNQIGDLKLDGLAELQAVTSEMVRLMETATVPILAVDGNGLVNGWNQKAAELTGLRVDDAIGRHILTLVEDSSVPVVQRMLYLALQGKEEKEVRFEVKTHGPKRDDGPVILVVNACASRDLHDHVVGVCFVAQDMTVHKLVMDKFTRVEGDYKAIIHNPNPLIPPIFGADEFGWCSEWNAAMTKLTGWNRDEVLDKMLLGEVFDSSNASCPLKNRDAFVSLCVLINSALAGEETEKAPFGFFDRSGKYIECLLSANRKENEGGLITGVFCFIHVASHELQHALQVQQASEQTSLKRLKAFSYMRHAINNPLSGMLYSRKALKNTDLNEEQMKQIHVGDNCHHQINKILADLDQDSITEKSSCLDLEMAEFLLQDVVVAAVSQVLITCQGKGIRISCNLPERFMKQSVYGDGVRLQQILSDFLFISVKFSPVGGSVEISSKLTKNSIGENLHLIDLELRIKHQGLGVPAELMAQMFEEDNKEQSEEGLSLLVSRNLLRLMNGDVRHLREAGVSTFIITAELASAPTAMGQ
The method, then: (§1) Figure 4 Phosphorylation analyses of AsphyA mutants with reduced kinase activity. (a) Kinase activity assays of the AsphyA mutants. In all, 1.0 μg of GST/strep-fused PIF3 (∼0.3 μM) was added as a substrate in reaction mixtures with 1.0 μg of either full-length WT or a mutant (K411L, T418D or D422R) AsphyA protein (∼0.2 μM). (b) Protein–protein interaction analysis between PIF3 and the AsphyA kinase mutants. GST was included as a negative control. (c) ATP-binding affinity assays of AsphyA kinase mutants using photoaffinity labelling with 8-azido-ATP. 1.0 μg of full-length AsphyA protein (∼80 nM) was labelled with the indicated concentrations of 8-azido-ATP. The percentages of 8-azido-ATP labeling were obtained where the labelling of WT AsphyA with 5 μM azido-ATP was assumed as 100%. Error bars represent s.d. from three independent measurements.
(§2) To investigate ATP-binding to AsphyA proteins, photoaffinity labelling experiments were carried out using 8-N3-ATP-biotin-long chain-hydrazone (8-azido-ATP), which were purchased from Affinity Labeling Technologies, Inc. Purified phytochrome proteins (1.0 μg) were pre-incubated for 30 min on ice in 50 μl of photoaffinity labelling buffer (20 mM Tris-HCl, pH 7.0, 2 mM EDTA, 2 mM MgCl2 and 150 μM ATP), and then 8-azido-ATP was applied with indicated concentrations. […]
(§3) Supplementary Figure 15. […] Full-length wild-type and mutant AsphyA proteins were labeled with the indicated concentrations of 8-azido-ATP, and the azido-ATP-labeled proteins were detected with avidin-HRP (upper panels).
(§4) Amounts of AsphyA proteins (ca. 1.0 µg) used in these reactions are shown as loading controls in lower panels, which were analyzed using western blots with oat22 antibody.
(§5) Phosphorylation analysis of the D422R mutant of A610 (DR/A610). […] Wild-type (A610) and DR/A610 mutant proteins were labeled with the indicated concentrations of 8-azido-ATP, and the 8-azido-ATP labeled proteins were detected with avidin-HRP (upper panel).

Experiment [2] has as its target T2, K411L AsphyA mutant (full-length) (Avena sativa, UniProt P06593, K411L).
T2 construct: After preparing purified full-length AsphyA mutants; made in house; host or cells: Pichia pastoris GS115
The method, then: as §1, §2, §3, §4, §5

In experiment [3] the target is T3, T418D AsphyA mutant (full-length) (Avena sativa, UniProt P06593, T418D).
T3 construct: After preparing purified full-length AsphyA mutants; made in house; host or cells: Pichia pastoris GS115
T3 sequence (P06593 whole entry T418D): as the sequence (P06593 whole entry D422R) above, with T418D, R422D counted along it
The procedure:
as §1, §2, §3, §4, §5

T2 sequence (P06593 whole entry K411L): as the sequence (P06593 whole entry D422R) above, with K411L, R422D counted along it

“8-N3-ATP-biotin-long chain-hydrazone [8-azido-ATP]”: the “8-azido-ATP labelling, % of the WT AsphyA” value is approximately 5% in experiment [1], approximately 30% in experiment [2] and approximately 17% in experiment [3].
